Assay results from patent US20240287025A1, “TETRAHYDROQUINOLINE (THQ) COUMPOUNDS” (Centre National de la Recherche Scientifique, priority 2021, published 2024).

Key:
[1] = biological target: Brd4 BD2 (Homo sapiens (Human), UniProt O60885); assay: HTRF evaluation of bromodomain inhibitors, Brd4 BD2; assay type: binding; conditions: for IC50: HTRF, H4ac4 peptide 600 nM, 24 h at 4° C.; for Selectivity BD2/BD1: ratio of the BD1 and BD2 IC50
Description: (§1) HTRF reagents and buffers were purchased from Cisbio Bioassays. The assay used a terbium (Ill) cryptate donor reagent conjugated to an anti-GST antibody (MAb anti-GST-Tb; GSTTLA), a streptavidin-conjugated acceptor reagent (streptavidin-d2) and Cisbio proprietary buffers (EPlgeneous Binding Domain Diluent and Detection buffer, respectively). GST-tagged bromodomains (BDs) were expressed in E. coli and purified using standard procedures. Incubation of GST-tagged BDs with biotinylated acetylated H4 peptide (H4K5acK8acK12acK16ac, here named H4ac4) brings the donor and acceptor into close proximity and allows for a FRET reaction. GST-tagged proteins in 25 mM Hepes pH 7.5, 150 mM NaCl, 0.5 mM DTT were assayed at a final concentration of 5 nM. Biotinylated H4ac4 peptides were used at a final concentration of 50, 600 nM in assays involving Brd4 BD1, Brd4 BD2, respectively. The antibody-conjugated donor was used at 0.5 nM and the streptavidin-conjugated acceptor was used at ⅛ of the H4ac4 peptide concentration. Inhibitors were tested by performing an eleven-point dilution series with a maximal final concentration of […]. These concentrations allowed a fixed DMSO concentration at 0.2%, critical for a Z′ factor ≥0.8. Components were incubated at 4° C. for 4 h (BD1) or for 24 h (BD2). Experiments were performed in 384-well white plates (Greiner ref. 781080) and analyzed in a ClarioStar plate reader (BMG LABTECH, excitation at 330 nm and emission at 620 and 665 nm, corresponding to the donor and acceptor emission peaks, respectively; the 665/620 ratio is used to calculate the specific HTRF signal) with an integration delay of 60 μs and an integration time of 400 μs.

[2] = test system: J774 mouse macrophages; assay: Cytotoxicity and anti-inflammatory activity (IL-6/TNFα, AI score) after iBET/LPS treatment; assay type: cell-based; conditions: AI score versus cytotoxicity, FIG. 7
Description: J774 mouse macrophages were cultured in DMEM 10% Fetal Calf Serum (FCS) 1% penicillin and streptomycin at 37° C. 5% CO2. […]. Cells were then seeded at 250,000 cells/ml and treated with 1 μM, 10 μM and 100 μM for each iBET and, then, after 30 min, with 100 μg/ml LPS (lipopolysaccharides, Cell Signaling Technology ref: 14011S) to induce inflammatory response. After 24 h, cytotoxicity was evaluated using CytoTox-ONE™ Homogeneous Membrane Integrity Assay and/or CellTiter 96 Non-radioactive Cell Proliferation Assay (Promega) according to manufacturer's instructions. IL6 and TNFα secretion were assessed using respectively IL-6 Mouse ELISA assay and TNFα Mouse ELISA assay (Invitrogen) according to manufacturer's instructions.
Experimental procedure: J774 mouse macrophages were cultured in DMEM 10% Fetal Calf Serum (FCS) 1% penicillin and streptomycin at 37° C. 5% CO2. […] After 24 h, cytotoxicity was evaluated using the Cell Proliferation Kit I (Roche) according to manufacturer's instructions. IC50 were calculated using GraphPad (Prism) using non linear regression curve fit. IL6 and TNF[…] secretion was assessed using respectively IL-6 Mouse and TNFα Mouse ELISA assay (Invitrogen) on cell culture supernatants according to manufacturer's instructions. […]

[3] = biological target: Brd4 BD1 (Homo sapiens (Human), UniProt O60885); assay: HTRF evaluation of bromodomain inhibitors, Brd4 BD1; assay type: binding; conditions: H4ac4 peptide 50 nM, 4 h at 4° C.
Description: as §1

[4] = test system: LPS-stimulated J774 mouse macrophages cells; assay: RNA sequencing, gene expression profiles of LPS-stimulated cells; assay type: cell-based; conditions: 10 μM, 6 h, RNAseq
Description: Experimental procedure: RNA was extracted from 5 million of LPS-stimulated J774 mouse macrophages cells treated for 6 h with DMSO (negative control), reference iBETs (JQ1 and iBET726, 1 μM) and lead compounds (MLE83 and JUP102, 10 μM) using Trizol (Invitrogen) according to manufacturer's instructions. RNA sequencing was subcontracted to BGI Genomics ([…] Sequencing Technology). FASTQ sequencing files were aligned to mouse genome (GRCm39 assembly) using STAR (v2.7.1a). Bam files were counted using HTSeq framework (v0.11.2). Reads normalization and differential analysis was performed suing SARTools and DESeq2 (v1.22.2) R packages. Genes were considered as differentially expressed when |log 2FC|>1 AND p value <0.05 between control and treated conditions. Gene Set Enrichment Analysis was performed using GSEA v4.2.1 software against the hallmark v7.5 gene sets from the Broad Institute Molecular Signature Database. A detailed description of GSEA methodology and interpretation is provided online (http://www.broadinstitute.org/gsea/doc/GSEAUserGui-deFrame.html).

| SMILES | IC50 [1] [nM] | Selectivity BD2/BD1 [1] | inflammatory activity/toxicity ratio [2] | IC50 [3] [nM] | GSEA analysis, iBET-associated cellular responses [4] | number of genes impacted, times fewer than JUP102 [4] [times] |
| --- | --- | --- | --- | --- | --- | --- |
| C=CCCCC(=O)Nc1ccc(-c2ccc3c(c2)[C@@H](n2cc(-c4ccccc4)nn2)[C@H](C)[C@H](CC)N3C(C)=O)cc1 [XD, N-(4-((2S,3R,4S)-1-acetyl-2-ethyl-3-methyl-4-(4-phenyl-1H-1,2,3-triazol-1-yl)-1,2,3,4-tetrahydroquinolin-6-yl)phenyl)hex-5-enamide] | 620 | 1.1 | best inflammatory activity/toxicity ratio | 562 | reduces inflammatory response and MYC signaling | ~10 |
| C#CCOCCOCCOCc1cn([C@@H]2c3cc(C(=O)OC)ccc3N(C(C)=O)[C@@H](CC)[C@H]2C)nn1 [XQ] | 1490 | 11.2 | best inflammatory activity/toxicity ratio | 16600 | reduces inflammatory response and MYC signaling |  |
